Laboratory results reported in ChEMBL document CHEMBL3045288, “Pharmacophore of neonicotinoid insecticides” (J Pestic Sci, 2008).

Tests used:
[1] = Lipophilicity, log P of the compound; format: physicochemical; details: octanol/water
[2] = tested on: Periplaneta americana; test: Neuroblocking potency in Periplaneta americana (American cockroach) central nerve cord; format: functional
[3] = tested on: Spodoptera litura; test: Insecticidal activity against Spodoptera litura at 500 ppm; format: functional
[4] = tested on: Myzus persicae; test: Insecticidal activity against Myzus persicae (green peach aphid) at 500 ppm; format: functional
[5] = tested on: Aulacophora; test: Insecticidal activity against Aulacophora femoralis (cucurbit leaf beetle) at 500 ppm; format: functional
[6] = tested on: Periplaneta americana; test: Insecticidal activity against Periplaneta americana (American cockroach) central nerve cord; format: functional
[7] = tested on: Myzus persicae; test: Insecticidal activity against Myzus persicae (green peach aphid) at 20 ppm; format: functional
[8] = tested on: Spodoptera litura; test: Insecticidal activity against Spodoptera litura at 100 ppm; format: functional
[9] = tested on: Myzus persicae; test: Insecticidal activity against Myzus persicae (green peach aphid) at 100 ppm; format: functional
[10] = tested on: Aulacophora; test: Insecticidal activity against Aulacophora femoralis (cucurbit leaf beetle) at 20 ppm; format: functional
[11] = tested on: Aulacophora; test: Insecticidal activity against Aulacophora femoralis (cucurbit leaf beetle) at 100 ppm; format: functional
[12] = tested on: Spodoptera litura; test: Insecticidal activity against Spodoptera litura at 20 ppm; format: functional

## O=[N+]([O-])/C=C1\CCCN1Cc1cnc(Cl)s1
[1]
  logP: 0.64
[2]
  log(1/BC): 6

## O=[N+]([O-])/N=c1\ccccn1Cc1cnc(Cl)s1
[2]
  log(1/BC): 5.75

## O=[N+]([O-])/N=c1\sccn1Cc1cnc(Cl)s1
[2]
  log(1/BC): 5.79

## O=[N+]([O-])/N=C1\NCCCN1Cc1ccc(Cl)nc1
[2]
  log(1/BC): 5.35

## O=[N+]([O-])/N=c1\[nH]ccn1Cc1cnc(Cl)s1
[2]
  log(1/BC): 4.61

## CCCN1CCN/C1=N\[N+](=O)[O-]
[3]
  Activity: 0%
[4]
  Activity: 60%
[5]
  Activity: 0%

## O=[N+]([O-])/N=C1\NCCN1Cc1cnc(Cl)s1 [IMIDACLOTHIZ]
[2]
  log(1/BC): 5.97

## O=[N+]([O-])/N=c1\ccccn1Cc1ccc(Cl)nc1
[2]
  log(1/BC): 5.09

## O=[N+]([O-])/N=C1/N(CCCCCN2CCN(Cc3ccc(Cl)nc3)/C2=N/[N+](=O)[O-])CCN1Cc1ccc(Cl)nc1
[6]
  Activity: 3.9 nmol

## O=[N+]([O-])/N=C1/N(CCCCCCCCCCN2CCN(Cc3ccc(Cl)nc3)/C2=N/[N+](=O)[O-])CCN1Cc1ccc(Cl)nc1
[6]
  Activity: 3.7 nmol

## O=[N+]([O-])/C=C1\CCCN1Cc1ccc(Cl)nc1
[2]
  log(1/BC): 6.43

## O=[N+]([O-])/C=C1\NCCN1Cc1ccc(Cl)nc1
[2]
  log(1/BC): 5.02

## O=[N+]([O-])Nc1nccn1Cc1ccc(Cl)nc1 [DEHYDROIMIDACLOPRID]
[2]
  log(1/BC): 4.31

## O=[N+]([O-])/N=C1\NCCN1CCCF
[3]
  Activity: 100%
[7]
  Activity: 60%
[8]
  Activity: 20%
[9]
  Activity: 90%
[4]
  Activity: 97%
[10]
  Activity: 0%
[11]
  Activity: 100%
[5]
  Activity: 100%

## O=[N+]([O-])/N=C1/N(CCCCN2CCN(Cc3ccc(Cl)nc3)/C2=N/[N+](=O)[O-])CCN1Cc1ccc(Cl)nc1
[6]
  Activity: 11 nmol

## O=[N+]([O-])/N=c1\sccn1Cc1ccc(Cl)nc1
[2]
  log(1/BC): 5.68

## O=[N+]([O-])/C=C1\SCCN1Cc1ccc(Cl)nc1
[2]
  log(1/BC): 6.19

## O=[N+]([O-])/N=C1\NCCN1CCC(F)=C(F)F
[3]
  Activity: 0%
[4]
  Activity: 0%
[5]
  Activity: 0%

## CN1CCN(Cc2ccc(Cl)nc2)/C1=N/[N+](=O)[O-]
[2]
  log(1/BC): 3.81

## O=[N+]([O-])/C=C1\NCCN1Cc1cnc(Cl)s1
[2]
  log(1/BC): 5.73

## CN1CCN(Cc2ccc(Cl)nc2)/C1=C/[N+](=O)[O-]
[2]
  log(1/BC): 3.84

## O=[N+]([O-])/N=C1/N(CCCCCCCCCN2CCN(Cc3ccc(Cl)nc3)/C2=N/[N+](=O)[O-])CCN1Cc1ccc(Cl)nc1
[6]
  Activity: 2.8 nmol

## O=[N+]([O-])/N=C1/N(CCCCCCCCN2CCN(Cc3ccc(Cl)nc3)/C2=N/[N+](=O)[O-])CCN1Cc1ccc(Cl)nc1
[6]
  Activity: 4.5 nmol

## O=[N+]([O-])/N=C1/N(CCCCCCN2CCN(Cc3ccc(Cl)nc3)/C2=N/[N+](=O)[O-])CCN1Cc1ccc(Cl)nc1 [Hexamethylene 1,6-bis-imadacloprid]
[6]
  Activity: 2.2 nmol

## O=[N+]([O-])/N=C1/N(CCCN2CCN(Cc3ccc(Cl)nc3)/C2=N/[N+](=O)[O-])CCN1Cc1ccc(Cl)nc1
[6]
  Activity: 4.9 nmol

## O=[N+]([O-])/N=C1/N(CCCCCCCN2CCN(Cc3ccc(Cl)nc3)/C2=N/[N+](=O)[O-])CCN1Cc1ccc(Cl)nc1 [Heptamethylene 1,7-bis-imadacloprid]
[6]
  Activity: 2.8 nmol

## O=[N+]([O-])/N=C1\NCCN1CCCCl
[3]
  Activity: 0%
[9]
  Activity: 0%
[4]
  Activity: 97%
[10]
  Activity: 50%
[11]
  Activity: 100%
[5]
  Activity: 100%

## O=[N+]([O-])/N=C1\N(CCN2CCN(Cc3ccc(Cl)nc3)/C2=N\[N+](=O)[O-])CCN1Cc1ccc(Cl)nc1
[6]
  Activity: 8.3 nmol

## O=[N+]([O-])/N=C1\NCCN1CCF
[3]
  Activity: 0%
[4]
  Activity: 60%
[5]
  Activity: 0%

## O=[N+]([O-])/N=C1\NCCN1Cc1ccc(Cl)nc1 [IMIDACLOPRID]
[3]
  Activity: 100%
[7]
  Activity: 100%
[8]
  Activity: 80%
[12]
  Activity: 40%
[9]
  Activity: 100%
[4]
  Activity: 100%
[10]
  Activity: 100%
[2]
  log(1/BC): 5.64
[6]
  Activity: 2.5 nmol
[11]
  Activity: 100%
[5]
  Activity: 100%

## O=[N+]([O-])/N=C1\NCCN1CCCCF
[3]
  Activity: 20%
[7]
  Activity: 0%
[8]
  Activity: 0%
[9]
  Activity: 60%
[4]
  Activity: 97%

## O=[N+]([O-])/N=C1\NCCN1CCC(F)(F)F
[3]
  Activity: 30%
[4]
  Activity: 0%
[11]
  Activity: 50%
[5]
  Activity: 100%

## O=[N+]([O-])/N=C1\SCCN1Cc1cnc(Cl)s1
[2]
  log(1/BC): 6.31

## O=[N+]([O-])/N=C1\N(CCCF)CCN1Cc1ccc(Cl)nc1
[3]
  Activity: 0%
[7]
  Activity: 100%
[9]
  Activity: 100%
[10]
  Activity: 100%
[11]
  Activity: 100%
